The values below come from article PMC10574094, “Discovery of a SHP2 Degrader with In Vivo Anti-Tumor Activity” (Molecules, 2023).

The assay addresses T1, full-length SHP2 (1-528) (Homo sapiens, UniProt Q06124).
T1 construct: The SHP2 protein (Aa 1–528) was cloned into a pET-21a(+) vector; His; made in house; host or cells: E. coli BL21(DE3)
T1 sequence (Q06124 1-528): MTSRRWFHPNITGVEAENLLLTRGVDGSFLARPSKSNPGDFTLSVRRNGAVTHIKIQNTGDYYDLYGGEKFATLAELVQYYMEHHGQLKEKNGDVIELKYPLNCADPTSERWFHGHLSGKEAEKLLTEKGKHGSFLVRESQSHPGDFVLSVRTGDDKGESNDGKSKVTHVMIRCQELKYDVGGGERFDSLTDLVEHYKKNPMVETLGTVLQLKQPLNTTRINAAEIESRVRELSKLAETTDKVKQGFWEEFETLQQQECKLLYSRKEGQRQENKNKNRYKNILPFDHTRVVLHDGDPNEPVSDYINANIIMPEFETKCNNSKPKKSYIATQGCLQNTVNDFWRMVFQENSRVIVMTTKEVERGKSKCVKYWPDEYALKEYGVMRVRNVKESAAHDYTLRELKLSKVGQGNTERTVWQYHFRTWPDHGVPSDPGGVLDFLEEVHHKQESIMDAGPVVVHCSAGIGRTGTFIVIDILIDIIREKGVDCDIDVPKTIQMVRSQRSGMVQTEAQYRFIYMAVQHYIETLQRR
As to the kind of experiment: SHP2 allosteric inhibition assay (DiFMUP substrate). It is filed as biochemical. How it is done:
The SHP2 protein (Aa 1–528) was cloned into a pET-21a(+) vector. Bacterial BL21(DE3) (Novagen) was used as an expression host, and the induction of protein expression was carried out in LB media with 1 mM IPTG at 18 °C overnight. Cell pellets were stored at −80 °C for subsequent protein purification. Protein purification was conducted at 4 °C. Frozen cell pellets were lysed by sonication in 40 mL cold lysis buffer (50 mM Tris-HCl, pH 8.0, 150 mM NaCl, 5 mM imidazole, and 1 mM PMSF) per liter cell pellet. Cell lysates were clarified by centrifuging for 15 min at 6000 rpm. The supernatant was incubated with HisPur Ni-NTA resin (Thermo Scientific, Waltham, MA, USA) for 2 h, and then packed onto a column and washed with 50 resin volume of buffer A (50 mM Tris-HCl, pH 8.0, 500 mM NaCl, 5 mM imidazole). The HIS-tagged proteins were eluted with Buffer B (50 mM Tris-HCl, pH = 8.0, 500 mM NaCl, 300 mM imidazole,). Pooled HIS-protein-containing fractions were concentrated, loaded onto a HiLoad 26/600 Superdex 75 column (GE Healthcare Biosciences, Piscataway, NJ, USA), and eluted with storage buffer (50 mM Tris-HCl, pH 8.0, 150 mM NaCl, 1 mM DTT, 10% glycerol). Proteins used for inhibition assays were purified using Ni-NTA resin (Qiagen, Hilden, Germany) followed by size exclusion column chromatography (ÄKTA pure, Cytiva, Marlborough, MA, USA) and the purity was determined to be >95% by SDS-PAGE and Coomassie staining. The protein was aliquoted and stored at −80 °C.
The catalytic activity of SHP2 (1-528) was assayed with 6,8-Difluoro-4-Methylumbelliferyl Phosphate (DiFMUP, Invitrogen, cat# D6567) as a substrate in 3,3-Dimethylglutaric acid (DMG) buffer (50 mM DMG, pH 7.0, 1 mM EDTA, 18 mM NaCl, 0.01% Triton X-100) at 25 °C. To determine the IC50 values, the assays were performed in 96-well plates (Corning Costar 3915). Series diluted compounds were incubated with 0.5 nM of SHP2 and 0.5 μM of peptide IRS1_pY1172(dPEG8)pY1222 (sequence H2N-LN(pY)IDLDLV(dPEG8)LST(pY)ASINFQK-amide). After 30 min incubation at room temperature, the substrate DiFMUP was added to the reaction (200 μM final concentration, total reaction volume is […]) and incubated at 25 °C for 10 min. The reaction was then quenched by adding 40 μL of 160 μM bpV(Phen) (Sigma–Aldrich, cat# SML0889) solution. The fluorescence signal was monitored with a CLARIOstar Plus Microplate Spectrophotometer (BMG Labtech) using excitation and emission wavelengths of 340 and 450 nm, respectively. The inhibitordose-response curves were analyzed using normalized IC50 regression curve fitting with control-based normalization. Data were fitted using Prism GraphPad 9.2.0.

Take `Cc1ncsc1-c1ccc([C@H](C)NC(=O)[C@@H]2C[C@@H](O)CN2C(=O)[C@@H](NC(=O)CCCCCCCCCN2CCN(C(=O)CCCCCC3(CN)CCN(c4cnc(Sc5cccc(Cl)c5Cl)c(N)n4)CC3)CC2)C(C)(C)C)cc1` [P9, (2S,4R)-1-((S)-2-(10-(4-(6-(1-(6-amino-5-((2,3-dichlorophenyl)thio)pyrazin-2-yl)-4-(aminomethyl)piperidin-4-yl)hexanoyl)piperazin-1-yl)decanamido)-3,3-dimethylbutanoyl)-4-hydroxy-N-((S)-1-(4-(4-methylthiazol-5-yl)phenyl)ethyl)pyrrolidine-2-carboxamide]: the “Fold selectivity (SHP2)” value (Table S3, relative to SHP2) came out at 1. Where the note is “full length SHP2, enzymatic assay”, this molecule gave an IC50 of 95 ± 3.4 nM.
